The text below walks through data of patent US5962525A, “6,7-disubstituted-2-aminotetralines active as immunomodulators and pharmaceutical compositions containing same” (Sigma-Tau, priority 1990, dated 1999).

Like-named read-outs stand apart in the source and are kept apart here.

By LD50 is commonly meant the dose expected to kill half of the subjects tested. Low values mean a more toxic substance, high ones a less toxic substance.

A short description of data set [1]: Tolerability after oral or intravenous administration. The arrangement: species or system mouse (Swiss albino). The note with it: mouse, in vivo, 7 days observation, read-out: Tolerability, dose. Here is the method: The test was conducted in male Swiss albino mice weighing 22-24 g.
A group of animals (4 animals/dose) which had been kept fasting for 18 hours, were orally administered the compounds ST 557, ST 563, ST 564 and ST 570 dissolved in twice distilled water.
A further group of animals, which had free access to food and water, were administered intravenously the same compounds dissolved in saline it pH 7. All the animals were kept under observation for 7 days.

For data set [2], the system named is splenocytes. The data set can be described thus: "In vitro-ex vivo" effect on the mytogen (PHA, ConA, LPS)-induced splenocyte proliferation in mice immunodepressed with cyclophosphamide. Also noted: species or system mouse (B6 D2 F1). The note with it: for S.I. (stimulation index): with respect to the immunodepressed controls; for AUC (area under curve): immunodepressed. Here is the method:
Assessment of the "in vitro-ex vivo" effect of ST 557, ST 563 ST 564 on the mytogen (PHA, ConA, LPS)-Induced splenocyte proliferation in mice Immunodepressed with cyclotohosphamide
Male B6 D2 F1 mice aged 7-9 weeks (5 mice per group) were used.
The immunosuppressor (cyclophosphamide) was administered i.p. at the dose of 100 mg/kg at day -5. The compounds were administered i.p. (25 mg/kg/day) and per os (100 mg/kg/day) from day -5 to day -1 (spleen excision at day 0).
Splenocyte proliferation was induced by three different mytogens: PHA and ConA active on T-lymphocytes, and LPS active on B-lymphocytes. Each mytogen was tested at three different concentrations (suboptimal, optimal and superoptimal) corresponding to 0.5, 4 and 6 mcg/ml/well for PHA; 0.5, 4 and 8 mcg/ml/well for ConA and 0.5, 150 and 500 mcg/ml/well for LPS.
The experimental procedure is identical to that described in test 4.
The results are expressed as both AUC (see test 4) and S.I. In order to assess the efficacy of the immunosuppressor and the activity of the tested compounds, S.I. has been determined both for the immunodepressed controls (with respect to the normal controls) and for the immunodepressed treated animals (with respect to the immunodepressed controls), respectively. [formula]

The subject of data set [3] is murine peritoneal exudate cells (PEC). The data set can be described thus: "In vitro-ex vivo" effect on the phagocytic activity of exudate peritoneal cells (SRBC phagocytosis). The arrangement: species or system mouse (B6 D2 F1). Particulars: 25 mg/kg/day i.p. Here is the method: Assessment of the "in vitro-ex vivo" effect of ST 557, ST 563, ST 564, ST 570, ST 608 and ST 626 on the phagocytic activity of exudate peritoneal cells (PEC)
Male B6 D2 F1 mice aged 6-8 weeks (5 animals each group) were used.
The compounds were administered i.p. (25 mg/kg/day), ST 557, ST 563 and ST 626 were also administered per os (100 mg/kg/day) from day -5 to day -1 (PEC harvesting at day 0).
The experimental procedure was substantially the same as that described by Williams et al., in "Methods in Immunology and Immunochemistry", Acad. Press. 5: 261 (1976).
In particular, 24 hours following the end of the treatment, PECs from each experimental group were harvested, pooled and their concentration was adjusted to 4×10^6 cells/ml.
To volumes of 250 μl of each PEC sample were added equal volumes of 0.4% SRBC (Sheep Red Blood Cells) opsonized with hyperimmune serum.
The samples (duplicate) were incubated for 1 hour and then subjected to hypotonic shock in order to remove the non-phagocytized SRBC. After restoring the osmolarity, the phagocytes were cytocentrifuged, stained with a differential dye and observed under the microscope.
The results were expressed as:
(a) percentage of cells that have phagocytized with respect to 100 phagocytizing cells;
(b) total number of phagocytized SRBC;
(c) average number of SRBC in each phagocyte.

Data set [4] is described as follows: LD50, intravenous. Particulars: mouse, in vivo, 0.9% saline. Here is the method: LD50 was determined according to Carrol S. Weil's method, Biometrics, pages 249-263 (1952) in male Swiss albino mice weighing 22-24 g.
The various compounds dissolved in 0.9% saline were administered intravenously.

As for `COc1ccc(OCC(O)CNC2CCc3cc(OC)c(OC)cc3C2)cc1` (stereo not shown) [ST 564, 2-[(N-2-hydroxy-3-(4-methoxyphenoxy)propyl)amino]-6,7-dimethoxytetraline], the MTD at 168 h was more than 20 mg/kg in data set [1] (iv) and more than 50 mg/kg in data set [1] (po, os, fasting 18 hours). Further, the “S.I. (stimulation index)” value in data set [2] (ConA, 25 mg/kg/day i.p.) was 1.01; in data set [2] (ConA, 100 mg/kg/day os) it was 0.78; in data set [2] (LPS, 25 mg/kg/day i.p.), 2.74; in data set [2] (LPS, 100 mg/kg/day os), 0.65; in data set [2] (PHA, 25 mg/kg/day i.p.), 2.05. The “AUC (area under curve)” value in data set [2] (ConA, 25 mg/kg/day i.p.) is given as 514 ± 10 ×10^-3; in data set [2] (ConA, 100 mg/kg/day os), 577 ± 41 ×10^-3; in data set [2] (LPS, 25 mg/kg/day i.p.), 2533 ± 314 ×10^-3; in data set [2] (LPS, 100 mg/kg/day os) it was 3023 ± 257 ×10^-3; in data set [2] (PHA, 25 mg/kg/day i.p.) it was 205 ± 18 ×10^-3. For the same compound, the Fagocytizing cells in data set [3] is 40.0%. Also, in data set [3], the “Total n° SRBC phagocytized” value was found to be 126.6. Moreover, the “SRBC per phagocytizing cell” value in data set [3] (average number of SRBC in each phagocyte) was found to be 3.2. In data set [4], this compound had an LD50 of 44.5 mg/kg.
